“Also recorded” adds a separate entry of the source.
Key:
hot plate latency = assay: Hot plate test (acute pain model); assay type: in vivo, mice; settings: for Latency of animal to remove itself from the hotplate seconds ± STDerr: 30 minutes after administration; for analgesic effect in the hot plate test (in words): i.p., morphine 7.5 mg/kg, compound 1 0.1 mg/kg, sumatriptan 10 mg/kg
Protocol: Hot plate test in mouse or rat according to Eddy and Leimbach (J. Pharmacol. Exp. Ther. 1953, 107: 385-393): Mice or rats are placed onto a hot metal plate maintained at 54° C. for mice or 52° C. for rats surrounded by a Plexiglas cylinder (Height: 13 cm; Diameter: 19 cm). The latency to the first foot-lick is measured (maximum: 30 seconds).
Compound 1 and other compounds were tested on the hotplate 30 minutes after intraperitoneal administration. A description of the method is given above.

[1] = system: acetic acid induced writhing; assay: Acetic acid writhing test (acute pain model); assay type: in vivo, mice; settings: Mus musculus, po
Protocol: Phenylbenzoquinone and acetic writhing tests in mice follow the methods described by Hendershot et al (J. Pharmacol. Exp. Ther. 1959, 125: 237-240): Mice are injected with phenylbenzoquinone (PBQ) (1.25 mg/kg ip.) or acetic acid (0.5% ip.). This treatment induces a recognizable writhing response in control animals. The number of writhes is counted for 10 minutes beginning 5 minutes after injection of PBQ or acetic acid.

[2] = Sedative effects after oral dosing; assay type: in vivo; settings: dosages of up to 100 mg/kg p.o.

Structure (SMILES)	Latency of animal to remove itself from the hotplate seconds ± STDerr (hot plate latency; 7.5 mg/kg i.p.) [s]	analgesic effect in the hot plate test (in words) (hot plate latency)	Latency of animal to remove itself from the hotplate seconds ± STDerr (hot plate latency; 10 mg/kg i.p.) [s]	analgesic effect in the hot plate test (in words) (hot plate latency; listed as Sumatriptan)	antagonism of the analgesic effect of compound 1 in the hot plate test (hot plate latency; sumatriptan 10 mg/kg i.p. with compound 1 0.1 mg/kg i.p., P-value=0.0001, Wilcoxon test)	ED50 [1] [mg/kg]	Latency of animal to remove itself from the hotplate seconds ± STDerr (hot plate latency; 0.1 mg/kg i.p.) [s]	ED50 (hot plate latency; Mus musculus, po, read-out: ED50 hot plate test) [mg/kg]	sedative effects [2]
CN1CC[C@]23c4c5ccc(O)c4O[C@H]2[C@@H](O)C=C[C@H]3[C@H]1C5 [morphine]	7.8 ± 0.3	nearly doubles the latency	–	–	–	–	–	–	–
CNS(=O)(=O)Cc1ccc2[nH]cc(CCN(C)C)c2c1 [sumatriptan]	–	inactive	3.9 ± 0.3	completely inactive	nearly completely antagonizes; also recorded: nearly completely blocked	–	–	–	–
Nc1cc2cccc(N3CCNCC3)c2oc1=O [Compound 1, 3-amino-8-(1-piperazinyl)-2H-1-benzopyran-2-one]	–	–	–	–	–	1.82	8.4 ± 0.5	3.2	devoid of sedative effects

Source: patent US20050215567A1, “1-[2H-1-benzopyran-2-one-8-yl]-piperazine derivatives for the treatment of pain” (SOLVAY PHARMACEUTICALS B.V., priority 2004, published 2005)
